According to paper PMC3203118, “Elucidation of the ATP7B N-Domain Mg^2+-ATP Coordination Site and Its Allosteric Regulation” (PLoS ONE, 2011):
Residue numbers refer to the chain shown, from its start.

Key:
Assay in all cases: surface plasmon resonance (BIAcore), protein immobilised on CM4 chip
[1] = molecular target: T1, ATP7B N-domain (Nucleotide binding domain) (Homo sapiens, UniProt P35670, DEL1121-1137)
T1 construct: covalently immobilised on CM4 sensor chip
T1 sequence (P35670 with tags, fused parts or gaps DEL1121-1137): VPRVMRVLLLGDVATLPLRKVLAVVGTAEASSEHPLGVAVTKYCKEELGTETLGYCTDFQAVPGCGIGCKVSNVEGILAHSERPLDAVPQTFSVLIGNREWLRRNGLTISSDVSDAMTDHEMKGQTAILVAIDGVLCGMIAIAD
Source text: (§1) surface plasmon resonance (BIAcore), protein immobilised on CM4 chip on ATP7B N-domain (Nucleotide binding domain)

[2] = molecular target: T2, ATP7B N-domain (Nucleotide binding domain) (Homo sapiens, UniProt P35670, D1167A/D1171A/E1152A)
T2 construct: covalently immobilised on CM4 sensor chip
T2 sequence (P35670 1036-1196 E1152A/D1167A/D1171A): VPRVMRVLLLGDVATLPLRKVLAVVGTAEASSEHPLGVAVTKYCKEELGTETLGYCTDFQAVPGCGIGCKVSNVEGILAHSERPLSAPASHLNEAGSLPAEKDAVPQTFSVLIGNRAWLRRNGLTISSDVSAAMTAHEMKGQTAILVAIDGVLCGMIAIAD
Source text: as §1

[3] = molecular target: T3, ATP7B N-domain (Nucleotide binding domain) (Homo sapiens, UniProt P35670, N1150A); details: read-out: Kd (μM) / ATP
T3 construct: covalently immobilised on CM4 sensor chip
T3 sequence (P35670 1036-1196 N1150A): T2 sequence (P35670 1036-1196 E1152A/D1167A/D1171A) with N115A, A117E, A132D, A136D
Source text: as §1

[4] = molecular target: T4, ATP7B N-domain (Nucleotide binding domain) (Homo sapiens, UniProt P35670, D1167A); details: read-out: Kd (μM) / ATP
T4 construct: covalently immobilised on CM4 sensor chip
T4 sequence (P35670 1036-1196 D1167A): T2 sequence (P35670 1036-1196 E1152A/D1167A/D1171A) with A117E, A136D
Source text: as §1

[5] = molecular target: T5, ATP7B N-domain (Nucleotide binding domain) (Homo sapiens, UniProt P35670, H1069Q); details: read-out: Kd (μM) / ATP
T5 construct: covalently immobilised on CM4 sensor chip
T5 sequence (P35670 1036-1196 H1069Q): T2 sequence (P35670 1036-1196 E1152A/D1167A/D1171A) with H34Q, A117E, A132D, A136D
Source text: as §1

[6] = molecular target: T6, ATP7B N-domain (Nucleotide binding domain) (Homo sapiens, UniProt P35670, E1152A); details: read-out: Kd (μM) / ATP
T6 construct: covalently immobilised on CM4 sensor chip
T6 sequence (P35670 1036-1196 E1152A): T2 sequence (P35670 1036-1196 E1152A/D1167A/D1171A) with A132D, A136D
Source text: as §1

[7] = molecular target: T7, ATP7B N-domain (Nucleotide binding domain) (Homo sapiens, UniProt P35670, D1171A); details: read-out: Kd (μM) / ATP
T7 construct: covalently immobilised on CM4 sensor chip
T7 sequence (P35670 1036-1196 D1171A): T2 sequence (P35670 1036-1196 E1152A/D1167A/D1171A) with A117E, A132D
Source text: as §1

[8] = molecular target: T8, ATP7B N-domain (Nucleotide binding domain) (Homo sapiens, UniProt P35670); details: read-out: Kd (μM) / ATP
T8 construct: covalently immobilised on CM4 sensor chip
T8 sequence (P35670 1036-1196): T2 sequence (P35670 1036-1196 E1152A/D1167A/D1171A) with A117E, A132D, A136D
Source text: as §1

Nc1ncnc2c1ncn2[C@@H]1O[C@H](COP(=O)(O)OP(=O)(O)OP(=O)(O)O)[C@@H](O)[C@H]1O [ATP]
Kd [1]: > 1000 µM
Kd [2]: > 1000 µM
Kd [3]: 82.7 ± 4.16 µM
Kd [4]: 96.9 ± 3.91 µM
Kd [5]: 76.5 ± 1.72 µM
Kd [6]: 174 ± 3.82 µM
Kd [7]: 81.1 ± 3.16 µM
Kd [8]: 74.2 ± 2.52 µM
